Laboratory results as given in the NIST ThermoML archive (doi:10.1016/j.fluid.2016.02.009).

Conditions: Liquid, Vibrating tube method

CCCCOC [butyl methyl ether]
Conditions | mass density [kg/m3]
283.15 K, 100 kPa | 755.88
283.15 K, 5000 kPa | 760.82
283.15 K, 10000 kPa | 765.42
283.15 K, 15000 kPa | 769.77
283.15 K, 20000 kPa | 773.91
283.15 K, 25000 kPa | 777.86
283.15 K, 30000 kPa | 781.65
283.15 K, 35000 kPa | 785.29
283.15 K, 40000 kPa | 788.8
283.15 K, 45000 kPa | 792.18
283.15 K, 50000 kPa | 795.45
283.15 K, 55000 kPa | 798.61
283.15 K, 60000 kPa | 801.68
283.15 K, 65000 kPa | 804.67
288.15 K, 100 kPa | 750.88
288.15 K, 5000 kPa | 756.01
288.15 K, 10000 kPa | 760.78
288.15 K, 15000 kPa | 765.26
288.15 K, 20000 kPa | 769.53
288.15 K, 25000 kPa | 773.58
288.15 K, 30000 kPa | 777.48
288.15 K, 35000 kPa | 781.19
288.15 K, 40000 kPa | 784.79
288.15 K, 45000 kPa | 788.24
288.15 K, 50000 kPa | 791.57
288.15 K, 55000 kPa | 794.8
288.15 K, 60000 kPa | 797.94
288.15 K, 65000 kPa | 800.98
293.15 K, 100 kPa | 745.85
293.15 K, 5000 kPa | 751.18
293.15 K, 10000 kPa | 756.08
293.15 K, 15000 kPa | 760.71
293.15 K, 20000 kPa | 765.09
293.15 K, 25000 kPa | 769.27
293.15 K, 30000 kPa | 773.26
293.15 K, 35000 kPa | 777.09
293.15 K, 40000 kPa | 780.75
293.15 K, 45000 kPa | 784.3
293.15 K, 50000 kPa | 787.7
293.15 K, 55000 kPa | 791
293.15 K, 60000 kPa | 794.21
293.15 K, 65000 kPa | 797.33
298.15 K, 100 kPa | 740.78
298.15 K, 5000 kPa | 746.29
298.15 K, 10000 kPa | 751.36
298.15 K, 15000 kPa | 756.15
298.15 K, 20000 kPa | 760.68
298.15 K, 25000 kPa | 764.97
298.15 K, 30000 kPa | 769.08
298.15 K, 35000 kPa | 772.99
298.15 K, 40000 kPa | 776.76
298.15 K, 45000 kPa | 780.38
298.15 K, 50000 kPa | 783.87
298.15 K, 55000 kPa | 787.24
298.15 K, 60000 kPa | 790.51
298.15 K, 65000 kPa | 793.65
303.15 K, 100 kPa | 735.68
303.15 K, 5000 kPa | 741.39
303.15 K, 10000 kPa | 746.66
303.15 K, 15000 kPa | 751.6
303.15 K, 20000 kPa | 756.25
303.15 K, 25000 kPa | 760.68
303.15 K, 30000 kPa | 764.89
303.15 K, 35000 kPa | 768.9
303.15 K, 40000 kPa | 772.76
303.15 K, 45000 kPa | 776.46
303.15 K, 50000 kPa | 780.03
303.15 K, 55000 kPa | 783.46
303.15 K, 60000 kPa | 786.77
303.15 K, 65000 kPa | 790
308.15 K, 100 kPa | 730.53
308.15 K, 5000 kPa | 736.43
308.15 K, 10000 kPa | 741.88
308.15 K, 15000 kPa | 746.98
308.15 K, 20000 kPa | 751.8
308.15 K, 25000 kPa | 756.35
308.15 K, 30000 kPa | 760.67
308.15 K, 35000 kPa | 764.79
308.15 K, 40000 kPa | 768.74
308.15 K, 45000 kPa | 772.53
308.15 K, 50000 kPa | 776.18
308.15 K, 55000 kPa | 779.69
308.15 K, 60000 kPa | 783.07
308.15 K, 65000 kPa | 786.36
313.15 K, 100 kPa | 725.34
313.15 K, 5000 kPa | 731.47
313.15 K, 10000 kPa | 737.11
313.15 K, 15000 kPa | 742.4
313.15 K, 20000 kPa | 747.36
313.15 K, 25000 kPa | 752.04
313.15 K, 30000 kPa | 756.48
313.15 K, 35000 kPa | 760.7
313.15 K, 40000 kPa | 764.74
313.15 K, 45000 kPa | 768.63
313.15 K, 50000 kPa | 772.34
313.15 K, 55000 kPa | 775.93
313.15 K, 60000 kPa | 779.39
313.15 K, 65000 kPa | 782.73
318.15 K, 100 kPa | 720.1
318.15 K, 5000 kPa | 726.46
318.15 K, 10000 kPa | 732.32
318.15 K, 15000 kPa | 737.77
318.15 K, 20000 kPa | 742.89
318.15 K, 25000 kPa | 747.69
318.15 K, 30000 kPa | 752.27
318.15 K, 35000 kPa | 756.62
318.15 K, 40000 kPa | 760.76
318.15 K, 45000 kPa | 764.73
318.15 K, 50000 kPa | 768.51
318.15 K, 55000 kPa | 772.16
318.15 K, 60000 kPa | 775.71
318.15 K, 65000 kPa | 779.13
323.15 K, 100 kPa | 714.8
323.15 K, 5000 kPa | 721.41
323.15 K, 10000 kPa | 727.49
323.15 K, 15000 kPa | 733.12
323.15 K, 20000 kPa | 738.42
323.15 K, 25000 kPa | 743.37
323.15 K, 30000 kPa | 748.07
323.15 K, 35000 kPa | 752.53
323.15 K, 40000 kPa | 756.76
323.15 K, 45000 kPa | 760.83
323.15 K, 50000 kPa | 764.7
323.15 K, 55000 kPa | 768.43
323.15 K, 60000 kPa | 772.05
323.15 K, 65000 kPa | 775.54
328.15 K, 100 kPa | 709.45
328.15 K, 5000 kPa | 716.32
328.15 K, 10000 kPa | 722.64
328.15 K, 15000 kPa | 728.5
328.15 K, 20000 kPa | 733.93
328.15 K, 25000 kPa | 739.05
328.15 K, 30000 kPa | 743.83
328.15 K, 35000 kPa | 748.41
328.15 K, 40000 kPa | 752.76
328.15 K, 45000 kPa | 756.92
328.15 K, 50000 kPa | 760.91
328.15 K, 55000 kPa | 764.72
328.15 K, 60000 kPa | 768.39
328.15 K, 65000 kPa | 771.91
333.15 K, 100 kPa | 704.04
333.15 K, 5000 kPa | 711.19
333.15 K, 10000 kPa | 717.74
333.15 K, 15000 kPa | 723.77
333.15 K, 20000 kPa | 729.38
333.15 K, 25000 kPa | 734.64
333.15 K, 30000 kPa | 739.61
333.15 K, 35000 kPa | 744.31
333.15 K, 40000 kPa | 748.78
333.15 K, 45000 kPa | 753.01
333.15 K, 50000 kPa | 757.06
333.15 K, 55000 kPa | 760.97
333.15 K, 60000 kPa | 764.71
333.15 K, 65000 kPa | 768.34
